Source: the NIST ThermoML archive (doi:10.1021/je060271a)

Conditions: 343.15 K, Liquid, Vibrating tube method

CCCCCCCC(=O)OCC(COC(=O)CCCCCCC)(COC(=O)CCCCCCC)COC(=O)CCCCCCC [pentaerythritol tetraoctanoate]
Conditions | mass density [kg/m3]
8739.9 kPa | 932.4
8784.7 kPa | 932.5
8991.7 kPa | 932.5
9031.4 kPa | 932.6
9071.9 kPa | 932.5
9120.5 kPa | 932.6
9162.4 kPa | 932.7
9204.8 kPa | 932.7
9248.6 kPa | 932.6
9301 kPa | 932.7
9344.4 kPa | 932.8
9387.6 kPa | 932.8
9449 kPa | 932.8
9480 kPa | 933
9517.6 kPa | 933
9549.6 kPa | 933.1
9582.5 kPa | 933
9620.6 kPa | 932.9
9653.7 kPa | 933.2
9687.4 kPa | 933
9726.7 kPa | 933.1
9760 kPa | 933.1
9793.4 kPa | 933.2
9827.7 kPa | 933
9868.1 kPa | 933.1
9902.1 kPa | 933.2
9943.1 kPa | 933.2
9978.4 kPa | 933.4
10014 kPa | 933.3
10058 kPa | 933.4
10096 kPa | 933.4
10138 kPa | 933.4
10176 kPa | 933.4
10207 kPa | 933.3
10234 kPa | 933.4
10256 kPa | 933.5
10278 kPa | 933.4
10305 kPa | 933.6
10327 kPa | 933.5
10349 kPa | 933.5
10376 kPa | 933.6
10422 kPa | 933.8
10450 kPa | 933.7
10474 kPa | 933.6
10497 kPa | 933.7
10520 kPa | 933.7
10543 kPa | 933.8
10572 kPa | 933.6
10595 kPa | 933.7
10618 kPa | 933.7
10647 kPa | 933.6
10671 kPa | 933.7
10699 kPa | 933.7
10723 kPa | 933.8
10748 kPa | 933.8
10777 kPa | 933.8
10803 kPa | 933.9
10827 kPa | 933.9
10852 kPa | 933.8
10881 kPa | 933.9
10906 kPa | 933.9
10936 kPa | 934
10961 kPa | 934
10987 kPa | 933.9
11012 kPa | 933.9
11042 kPa | 934
11068 kPa | 934
11099 kPa | 934.1
11126 kPa | 933.9
11153 kPa | 934
11180 kPa | 934.2
11206 kPa | 934.2
11238 kPa | 934.2
11264 kPa | 934.2
11296 kPa | 934.3
11323 kPa | 934.3
11350 kPa | 934.2
11383 kPa | 934.3
11410 kPa | 934.3
11438 kPa | 934.3
11471 kPa | 934.3
11499 kPa | 934.3
11528 kPa | 934.4
11561 kPa | 934.4
11590 kPa | 934.4
11618 kPa | 934.4
11647 kPa | 934.2
11710 kPa | 934.4
11739 kPa | 934.5
11774 kPa | 934.4
11804 kPa | 934.5
11834 kPa | 934.4
11869 kPa | 934.5
11900 kPa | 934.6
11930 kPa | 934.7
11966 kPa | 934.6
11997 kPa | 934.7
12027 kPa | 934.6
12064 kPa | 934.7
12095 kPa | 934.7
12126 kPa | 934.7
12163 kPa | 934.8
12195 kPa | 934.7
12227 kPa | 934.8
12265 kPa | 934.9
12296 kPa | 934.8
12329 kPa | 934.9
12362 kPa | 934.8
12401 kPa | 934.9
12434 kPa | 935
12468 kPa | 935
12507 kPa | 935
12541 kPa | 935
12575 kPa | 935
12615 kPa | 935.1
12649 kPa | 935.2
12684 kPa | 935.1
12725 kPa | 935.1
12760 kPa | 935.1
12797 kPa | 935.2
12831 kPa | 935.2
12873 kPa | 935.3
12909 kPa | 935.2
12944 kPa | 935.3
12980 kPa | 935.3
13024 kPa | 935.5
13060 kPa | 935.3
13096 kPa | 935.4
13140 kPa | 935.5
13177 kPa | 935.5
13222 kPa | 935.7
13261 kPa | 935.6
13300 kPa | 935.6
13339 kPa | 935.6
13384 kPa | 935.7
13423 kPa | 935.6
13462 kPa | 935.6
13508 kPa | 935.7
13548 kPa | 935.8
13587 kPa | 935.6
13635 kPa | 935.7
13675 kPa | 935.7
13716 kPa | 935.8
13807 kPa | 936
13849 kPa | 936
13893 kPa | 936
13947 kPa | 936
13993 kPa | 936.1
